# Reference: patent US20240279218A1 (Hoffmann-La Roche Inc., priority 2016, published 2024)
# What was measured:
# h-GABA-A α5β3γ2 [1] = molecular target: T1, h-GABA-A α5β3γ2 (Homo sapiens (Human), UniProt P18507+P31644); assay: Two-electrode voltage clamp electrophysiology in Xenopus oocytes expressing GABAA receptors, modulation of GABA EC20 current; assay type: cell-based; settings: Xenopus oocytes; for Efficacy (GABA) %: % modulation of GABA EC20 = 100*(Fold increase−1); for Fold increase h-GABA-A α5β3γ2 oocyte: GABA EC20, test compound at approx. 30 fold its Ki
# Method in brief: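 Values are % modulation of an EC20 GABA response, derived point by point from the ratio of compound-exposed versus control current traces (extremum taken, 100×(fold−1)). Recordings used oocytes injected with human α5, β3, γ2 mRNA, clamped at −80 mV at room temperature, at least 3 oocytes each.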
# h-GABA-A α5β3γ2 [2] = molecular target: T1, h-GABA-A α5β3γ2; assay: [3H]flumazenil competition binding assay, membranes of HEK293 cells expressing human GABAA receptors; settings: displacement of [3H]flumazenil 0.5 nM, HEK293 cells expressing human receptors, mean of two determinations; read-out: Ki h-GABA-A α5β3γ2
# Method in brief: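 Membranes were prepared from HEK293 cells with transient human α5β3γ2 expression and assayed in Krebs-tris, pH 7.5. Bound radioactivity measured on filters by liquid scintillation.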
Efficacy (GABA) % (h-GABA-A α5β3γ2 [1]) [%],Fold increase h-GABA-A α5β3γ2 oocyte (h-GABA-A α5β3γ2 [1]),Ki (h-GABA-A α5β3γ2 [2]) [nM],Structure (SMILES)
54,1.54,14.8,"CNC(=O)c1ccc(OCc2c(-c3ccc(C)nc3)noc2C)nc1F [Example 136, 2-fluoro-N-methyl-6-((5-methyl-3-(6-methylpyridin-3-yl)isoxazol-4-yl)methoxy)pyridine-3-carboxamide]"
55,1.55,25.4,"COc1ccc(-c2noc(C)c2COc2ccc(C(=O)NC3CCOCC3)cn2)cn1 [Example 137, 6-((3-(6-methoxypyridin-3-yl)-5-methylisoxazol-4-yl)methoxy)-N-tetrahydropyran-4-yl-pyridine-3-carboxamide]"
46,1.46,93.8,"COc1ccc(-c2noc(C)c2COc2ccc(C(=O)NC(C)C)cn2)cn1 [Example 138, N-isopropyl-6-((3-(6-methoxypyridin-3-yl)-5-methylisoxazol-4-yl)methoxy)pyridine-3-carboxamide]"
152,2.52,19.4,"CCC[C@@H](CO)NC(=O)c1ccc(OCc2c(-c3ccc(OC)nc3)noc2C)nc1 [Example 139, (S)—N-(1-hydroxypentan-2-yl)-6-((3-(6-methoxypyridin-3-yl)-5-methylisoxazol-4-yl)methoxy)pyridine-3-carboxamide]"
13,1.13,56,"COc1ccc(-c2noc(C)c2COc2ccc(C(=O)N3CCS(=O)(=O)CC3)cn2)cn1 [Example 140, (1,1-dioxidothiomorpholino)(6-((3-(6-methoxypyridin-3-yl)-5-methylisoxazol-4-yl)methoxy)pyridin-3-yl)methanone]"
243,3.43,49.5,"CCC[C@@H](CO)NC(=O)c1ccc(OCc2c(-c3ccc(N(C)C)nc3)noc2C)nc1 [Example 141, (S)-6-((3-(6-(dimethylamino)pyridin-3-yl)-5-methylisoxazol-4-yl)methoxy)-N-(1-hydroxypentan-2-yl)nicotinamide]"
44,1.44,4.7,"COc1cc(OCc2c(-c3ccc(C)nc3)noc2C)ncc1C(=O)NC1CCOCC1 [Example 142, 4-methoxy-6-((5-methyl-3-(6-methylpyridin-3-yl)isoxazol-4-yl)methoxy)-N-(tetrahydropyran-4-yl)nicotinamide]"
20,1.2,14.5,"Cc1ncc(-c2noc(C)c2COc2ccc(C(=O)NC3CCOCC3)cn2)cc1F [Example 143, 6-((3-(5-fluoro-6-methyl-3-pyridyl)-5-methyl-isoxazol-4-yl)methoxy)-N-tetrahydropyran-4-yl-pyridine-3-carboxamide]"
15,1.15,13.6,"Cc1ncc(-c2noc(C)c2COc2ccc(C(=O)NC(C)C)cn2)cc1F [Example 144, 6((3-(5-fluoro-6-methyl-3-pyridyl)-5-methyl-isoxazol-4-yl)methoxy)-N-isopropyl-pyridine-3-carboxamide]"
144,2.44,29,"CCC[C@@H](CO)NC(=O)c1ccc(OCc2c(-c3cnc(C)c(F)c3)noc2C)nc1 [Example 145, 6-((3-(5-fluoro-6-methyl-3-pyridyl)-5-methyl-isoxazol-4-yl)methoxy)-N-((1S)-1-(hydroxymethyl)butyl)pyridine-3-carboxamide]"
78,1.78,10,Cc1ccc(-c2noc(C)c2COc2ccc(C(=O)N[C@H]3CC[C@](C)(O)CC3)nn2)cn1 [Example 146]
48,1.48,9.6,"Cc1ccc(-c2noc(C)c2COc2ccc(C(=O)NC(C)(CO)CO)nn2)cn1 [Example 147, N-(1,3-dihydroxy-2-methylpropan-2-yl)-6-((5-methyl-3-(6-methylpyridin-3-yl)isoxazol-4-yl)methoxy)pyridazine-3-carboxamide]"
77,1.77,13.8,"Cc1ccc(-c2noc(C)c2COc2ccc(C(=O)N[C@H]3CC[C@@](C)(O)CC3)nn2)cn1 [Example 148, N-((1s,4s)-4-hydroxy-4-methylcyclohexyl)-6-((5-methyl-3-(6-methylpyridin-3-yl)isoxazol-4-yl)methoxy)pyridazine-3-carboxamide]"
84,1.84,5.5,"Cc1ccc(-c2noc(C)c2COc2ccc(C(=O)N[C@H]3CC[C@H](O)CC3)nn2)cn1 [Example 153, trans-N-(4-hydroxycyclohexyl)-6-((5-methyl-3-(6-methylpyridin-3-yl)isoxazol-4-yl)methoxy)pyridazine-3-carboxamide]"
97,1.97,10,"CO[C@H]1CC[C@H](NC(=O)c2ccc(OCc3c(-c4ccc(C)nc4)noc3C)nn2)CC1 [Example 154, trans-N-(4-methoxycyclohexyl)-6-((5-methyl-3-(6-methylpyridin-3-yl)isoxazol-4-yl)methoxy)pyridazine-3-carboxamide]"
46,1.46,15.4,"Cc1ccc(-c2noc(C)c2COc2ccc(C(=O)N3CC4(C3)CC(F)(F)C4)nn2)cn1 [Example 155, (6,6-difluoro-2-azaspiro[3.3]heptan-2-yl)(6-((5-methyl-3-(6-methylpyridin-3-yl)isoxazol-4-yl)methoxy)pyridazin-3-yl)methanone]"
98,1.98,7.8,"Cc1ccc(-c2noc(C)c2COc2ccc(C(=O)NC3CCCC(O)C3)nn2)cn1 (stereo not drawn) [Example 156, N-(3-hydroxycyclohexyl)-6-((5-methyl-3-(6-methylpyridin-3-yl)isoxazol-4-yl)methoxy)pyridazine-3-carboxamide]"
79,1.79,18.2,"CO[C@H]1CC[C@@H](NC(=O)c2ccc(OCc3c(-c4ccc(C)nc4)noc3C)nn2)CC1 [Example 158, cis-N-(4-methoxycyclohexyl)-6-((5-methyl-3-(6-methylpyridin-3-yl)isoxazol-4-yl)methoxy)pyridazine-3-carboxamide]"
55,1.55,23.7,"Cc1onc(-c2ccc(Cl)nc2)c1COc1ccc(C(=O)NC2CCOCC2)nn1 [Example 159, 6-((3-(6-chloropyridin-3-yl)-5-methylisoxazol-4-yl)methoxy)-N-(tetrahydropyran-4-yl)pyridazine-3-carboxamide]"
60,1.6,8,"Cc1onc(-c2ccc(Cl)nc2)c1COc1ccc(C(=O)NC2(C)COC2)nn1 [Example 161, 6-((3-(6-chloropyridin-3-yl)-5-methylisoxazol-4-yl)methoxy)-N-(3-methyloxetan-3-yl)pyridazine-3-carboxamide]"
37,1.37,11.2,"Cc1onc(-c2ccc(Cl)nc2)c1COc1ccc(C(=O)NC2CC3(COC3)C2)nn1 [Example 162, 6-((3-(6-chloropyridin-3-yl)-5-methylisoxazol-4-yl)methoxy)-N-(2-oxaspiro[3.3]heptan-6-yl)pyridazine-3-carboxamide]"
98,1.98,8.6,"CO[C@H]1C[C@H](NC(=O)c2ccc(OCc3c(-c4ccc(C)nc4)noc3C)nn2)C1 [Example 163, trans-N-(3-methoxycyclobutyl)-6-((5-methyl-3-(6-methyl-3-pyridyl)isoxazol-4-yl)methoxy)pyridazine-3-carboxamide]"
95,1.95,11.5,"CO[C@H]1C[C@@H](NC(=O)c2ccc(OCc3c(-c4ccc(C)nc4)noc3C)nn2)C1 [Example 164, cis-N-(3-methoxycyclobutyl)-6-((5-methyl-3-(6-methyl-3-pyridyl)isoxazol-4-yl)methoxy)pyridazine-3-carboxamide]"
174,2.74,2.6,"Cc1ccc(-c2noc(C3CC3)c2COc2ccc(C(=O)NC3CCOCC3)nn2)nn1 [Example 165, 6-((5-cyclopropyl-3-(6-methylpyridazin-3-yl)isoxazol-4-yl)methoxy)-N-(tetrahydropyran-4-yl)pyridazine-3-carboxamide]"
64,1.64,19.1,"Cc1ccc(-c2noc(C)c2COc2ccc(C(=O)NC3CC4(C3)CC(F)(F)C4)nn2)cn1 [Example 167, N-(6,6-difluorospiro[3.3]heptan-2-yl)-6-((5-methyl-3-(6-methylpyridin-3-yl)isoxazol-4-yl)methoxy)pyridazine-3-carboxamide]"

Structure (SMILES),Efficacy (GABA) % (h-GABA-A α5β3γ2 [1]) [%],Fold increase h-GABA-A α5β3γ2 oocyte (h-GABA-A α5β3γ2 [1]),Ki (h-GABA-A α5β3γ2 [2]) [nM]
"Cc1ccc(-c2noc(C)c2COc2ccc(C(=O)N3C4COCC3C4)nn2)cn1 [Example 157, 3-oxa-6-azabicyclo[3.1.1]heptan-6-yl(6-((5-methyl-3-(6-methylpyridin-3-yl)isoxazol-4-yl)methoxy)pyridazin-3-yl)methanone]",76,1.76,6
